Legend:
Carbonic anhydrase 1 = Carbonic anhydrase 1 (Homo sapiens, UniProt P00915); assay: Inhibition of human carbonic anhydrase-1 cytosolic isoform after 15 mins by Stopped-flow CO2 hydrase assay
Carbonic anhydrase 3 = Carbonic anhydrase 3 (Homo sapiens, UniProt P07451); assay: Inhibition of human carbonic anhydrase-3 cytosolic isoform after 15 mins by Stopped-flow CO2 hydrase assay
Carbonic anhydrase 9 = Carbonic anhydrase 9 (Homo sapiens, UniProt Q16790); assay: Inhibition of tumor-associated transmembrane human carbonic anhydrase-9 after 15 mins by Stopped-flow CO2 hydrase assay
Carbonic anhydrase 12 = Carbonic anhydrase 12 (Homo sapiens, UniProt O43570); assay: Inhibition of tumor-associated transmembrane human carbonic anhydrase-12 after 15 mins by Stopped-flow CO2 hydrase assay
Carbonic anhydrase 12, sequence (O43570 whole entry): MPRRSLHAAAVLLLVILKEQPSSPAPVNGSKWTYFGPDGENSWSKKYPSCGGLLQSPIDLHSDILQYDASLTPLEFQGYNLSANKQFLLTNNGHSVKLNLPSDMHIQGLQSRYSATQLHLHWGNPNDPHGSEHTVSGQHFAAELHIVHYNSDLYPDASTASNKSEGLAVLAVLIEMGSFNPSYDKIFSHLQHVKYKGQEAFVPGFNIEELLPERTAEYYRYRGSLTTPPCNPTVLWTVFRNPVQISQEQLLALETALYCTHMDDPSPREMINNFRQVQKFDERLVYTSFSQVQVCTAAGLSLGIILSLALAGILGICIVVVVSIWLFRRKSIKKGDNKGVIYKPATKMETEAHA

Carbonic anhydrase 3, sequence (P07451 whole entry, canonical isoform): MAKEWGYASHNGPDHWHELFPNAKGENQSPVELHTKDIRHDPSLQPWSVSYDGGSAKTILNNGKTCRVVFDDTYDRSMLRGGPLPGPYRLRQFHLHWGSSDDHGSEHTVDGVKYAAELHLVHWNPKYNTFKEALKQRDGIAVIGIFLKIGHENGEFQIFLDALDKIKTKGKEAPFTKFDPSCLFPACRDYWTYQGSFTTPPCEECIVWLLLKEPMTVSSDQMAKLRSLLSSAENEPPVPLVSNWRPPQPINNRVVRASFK
Carbonic anhydrase 1, sequence (P00915 whole entry, canonical isoform): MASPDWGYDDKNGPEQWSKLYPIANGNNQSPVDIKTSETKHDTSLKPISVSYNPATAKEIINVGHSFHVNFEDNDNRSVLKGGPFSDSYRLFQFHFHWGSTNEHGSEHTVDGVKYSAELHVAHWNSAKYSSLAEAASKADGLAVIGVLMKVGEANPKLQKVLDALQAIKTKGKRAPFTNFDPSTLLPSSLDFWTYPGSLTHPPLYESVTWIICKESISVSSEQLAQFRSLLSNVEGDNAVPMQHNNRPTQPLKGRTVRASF

Ki (Carbonic anhydrase 1) | Ki (Carbonic anhydrase 3) | Ki (Carbonic anhydrase 9) | Ki (Carbonic anhydrase 12) | Compound
0.85 µM | 1200 µM |  |  | NS(=O)(=O)c1nnc(NC(=O)C23CC4CC(CC(C4)C2)C3)s1
0.34 µM | 1400 µM |  |  | NS(=O)(=O)c1nnc(NC(=O)CC23CC4CC(CC(C4)C2)C3)s1
 | > 10000 µM | 0.0565 µM | 0.0094 µM | NS(=O)(=O)c1ccc(NC(=O)CC23CC4CC(CC(C4)C2)C3)cc1
 | > 10000 µM | 0.0513 µM | 0.0071 µM | NS(=O)(=O)c1ccc(NC(=O)C23CC4CC(CC(C4)C2)C3)cc1
